Measurements as given in US11458123B2 (Arvinas, Inc., priority 2016, dated 2022).

What follows are compounds tested on tau protein (assay: Tau protein in vitro degradation assay (Western blot, Tau-13 antibody)). Conditions: SK-N-SH cells; 72 hours of incubation; tested at 300 nM, 100 nM, 33 nM and 11 nM; Western blot, Tau-13 antibody.
Assay type: cell-based, human
Outline: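 Tau degradation read by Tau-13 Western blot (detects all human tau forms) of SDS-PAGE-resolved lysates from SK-N-SH cells. Cells were plated at least 18 h before 72 h exposure to PROTACs at either 1000/300/100 nM or 300/100/33/11 nM.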
`Cn1c2ccncc2c2ccc(-c3ccc(O[C@H]4C[C@H](Oc5ccc(C#CCN6CC(Oc7ccc8c(c7)C(=O)N(C7CCC(=O)NC7=O)C8=O)C6)nc5)C4)nc3)cc21` (stereo partly shown) [Compound 152, 2-(2,6-dioxopiperidin-3-yl)-5-((1-(3-(5-((1r,3r)-3-((5-(5-methyl-5H-pyrido[4,3-b]indol-7-yl)pyridin-2-yl)oxy)cyclobutoxy)pyridin-2-yl)prop-2-yn-1-yl)azetidin-3-yl)oxy)isoindoline-1,3-dione] was tested, and the “Degradation activity* (highest amount of degradation observed at any dosage; tau protein remaining)” value was “A (≤50% tau protein remaining after 72 hours of incubation with the test compound)”.
With `Cn1c2ccncc2c2ccc(-c3cnc(OCCOCCOCCOCCOCCOc4ccc5c(c4)C(=O)N(C4CCC(=O)NC4=O)C5=O)c(C(F)(F)F)c3)cc21` (stereo not shown) [Compound 67, 2-(2,6-dioxopiperidin-3-yl)-5-((14-((5-(5-methyl-5H-pyrido[4,3-b]indol-7-yl)-3-(trifluoromethyl)pyridin-2-yl)oxy)-3,6,9,12-tetraoxatetradecyl)oxy)isoindoline-1,3-dione] the “Degradation activity* (highest amount of degradation observed at any dosage; tau protein remaining)” value was “A (≤50% tau protein remaining after 72 hours of incubation with the test compound)”.
In the case of `Cc1ncsc1-c1ccc(CNC(=O)[C@@H]2C[C@@H](O)CN2C(=O)[C@H](C(C)C)N2Cc3ccccc3C2=O)c(OCCOCCOCCOCCOCCOc2ccc(-c3ccc4c(c3)[nH]c3ccncc34)cn2)c1` [Compound 201, (2S,4R)—N-(2-((14-((5-(5H-pyrido[4,3-b]indol-7-yl)pyridin-2-yl)oxy)-3,6,9,12-tetraoxatetradecyl)oxy)-4-(4-methylthiazol-5-yl)benzyl)-4-hydroxy-1-((S)-3-methyl-2-(1-oxoisoindolin-2-yl)butanoyl)pyrrolidine-2-carboxamide], the “Degradation activity (tau protein remaining; highest amount of degradation observed at any dosage)” value is reported as “C (>80% tau protein remaining after 72 hours of incubation with the test compound)”.
In the case of `Cn1c2ccncc2c2ccc(-c3ccc(OCCCOc4ccc(C#CCOC5CN(c6ccc7c(c6)C(=O)N(C6CCC(=O)NC6=O)C7=O)C5)nc4)nc3)cc21` (stereo not shown) [Compound 167, 2-(2,6-dioxopiperidin-3-yl)-5-(3-((3-(5-(3-((5-(5-methyl-5H-pyrido[4,3-b]indol-7-yl)pyridin-2-yl)oxy)propoxy)pyridin-2-yl)prop-2-yn-1-yl)oxy)azetidin-1-yl)isoindoline-1,3-dione], the “Degradation activity* (highest amount of degradation observed at any dosage; tau protein remaining)” value is reported as “C (>80% tau protein remaining after 72 hours of incubation with the test compound)”.
In the case of `Cn1c2ccncc2c2ccc(-c3ccc(O[C@H]4C[C@H](Oc5ccc(C#CCOCCOc6ccc7c(c6)C(=O)N(C6CCC(=O)NC6=O)C7=O)nc5)C4)nc3)cc21` (stereo partly shown) [Compound 179, 2-(2,6-dioxopiperidin-3-yl)-5-(2-((3-(5-((1r,3r)-3-((5-(5-methyl-5H-pyrido[4,3-b]indol-7-yl)pyridin-2-yl)oxy)cyclobutoxy)pyridin-2-yl)prop-2-yn-1-yl)oxy)ethoxy)isoindoline-1,3-dione], the “Degradation activity (tau protein remaining; highest amount of degradation observed at any dosage)” value is reported as “A (≤50% tau protein remaining after 72 hours of incubation with the test compound)”.
For `CN(CCCO[C@H]1C[C@H](Oc2ccc(-c3ccc4c5cnccc5n(C)c4c3)cn2)C1)C(=O)COCC1CN(c2ccc3c(c2)C(=O)N(C2CCC(=O)NC2=O)C3=O)C1` (stereo partly shown) [Compound 202, 2-((1-(2-(2,6-dioxopiperidin-3-yl)-1,3-dioxoisoindolin-5-yl)azetidin-3-yl)methoxy)-N-methyl-N-(3-((1r,3r)-3-((5-(5-methyl-5H-pyrido[4,3-b]indol-7-yl)pyridin-2-yl)oxy)cyclobutoxy)propyl)acetamide], the “Degradation activity (tau protein remaining; highest amount of degradation observed at any dosage)” value was “B (≤80% and >50% tau protein remaining after 72 hours of incubation with the test compound)”.
In the case of `O=C1CCC(N2C(=O)c3cnc(OCCOCCOCCOCCOCCOc4ccc(-c5ccc6c(c5)[nH]c5ccncc56)cn4)cc3C2=O)C(=O)N1` (stereo not shown) [Compound 87, 6-((14-((5-(5H-pyrido[4,3-b]indol-7-yl)pyridin-2-yl)oxy)-3,6,9,12-tetraoxatetradecyl)oxy)-2-(2,6-dioxopiperidin-3-yl)-1H-pyrrolo[3,4-c]pyridine-1,3 (2H)-dione], the “Degradation activity* (highest amount of degradation observed at any dosage; tau protein remaining)” value is reported as “C (>80% tau protein remaining after 72 hours of incubation with the test compound)”.
With `Cn1c2ccncc2c2ccc(-c3ccc(O[C@H]4C[C@H](OCCCCOCCCCOC5CN(c6ccc7c(c6)C(=O)N(C6CCC(=O)NC6=O)C7=O)C5)C4)nc3)cc21` (stereo partly shown) [Compound 162, 2-(2,6-dioxopiperidin-3-yl)-5-(3-(4-(4-((1r,3r)-3-((5-(5-methyl-5H-pyrido[4,3-b]indol-7-yl)pyridin-2-yl)oxy)cyclobutoxy)butoxy)butoxy)azetidin-1-yl)isoindoline-1,3-dione] the “Degradation activity* (highest amount of degradation observed at any dosage; tau protein remaining)” value was “A (≤50% tau protein remaining after 72 hours of incubation with the test compound)”.
`Cn1c2ccncc2c2ccc(-c3ccc(OCCCCCOCCCCCCC4CN(c5ccc6c(c5)C(=O)N(C5CCC(=O)NC5=O)C6=O)C4)nc3)cc21` (stereo not shown) [Compound 133, 2-(2,6-dioxopiperidin-3-yl)-5-(3-(6-((5-((5-(5-methyl-5H-pyrido[4,3-b]indol-7-yl)pyridin-2-yl)oxy)pentyl)oxy)hexyl)azetidin-1-yl)isoindoline-1,3-dione] was tested, and the “Degradation activity* (highest amount of degradation observed at any dosage; tau protein remaining)” value was “A (≤50% tau protein remaining after 72 hours of incubation with the test compound)”.
In the case of `Cn1c2ccncc2c2ccc(-c3ccc(O[C@H]4C[C@@H](Oc5ccc(C#CCOC6CN(c7ccc8c(c7)C(=O)N(C7CCC(=O)NC7=O)C8=O)C6)nc5)C4)nc3)cc21` (stereo partly shown) [Compound 159, 2-(2,6-dioxopiperidin-3-yl)-5-(3-((3-(5-((1 s,3 s)-3-((5-(5-methyl-5H-pyrido[4,3-b]indol-7-yl)pyridin-2-yl)oxy)cyclobutoxy)pyridin-2-yl)prop-2-yn-1-yl)oxy)azetidin-1-yl)isoindoline-1,3-dione], the “Degradation activity* (highest amount of degradation observed at any dosage; tau protein remaining)” value is reported as “C (>80% tau protein remaining after 72 hours of incubation with the test compound)”.
`Cn1c2ccncc2c2ccc(-c3ccc(O[C@H]4C[C@H](OCCOCCOCC5CN(c6ccc7c(c6)C(=O)N(C6CCC(=O)NC6=O)C7=O)C5)C4)nc3)cc21` (stereo partly shown) [Compound 192, 2-(2,6-dioxopiperidin-3-yl)-5-(3-((2-(2-((1r,3r)-3-((5-(5-methyl-5H-pyrido[4,3-b]indol-7-yl)pyridin-2-yl)oxy)cyclobutoxy)ethoxy)ethoxy)methyl)azetidin-1-yl)isoindoline-1,3-dione] was tested, and the “Degradation activity (tau protein remaining; highest amount of degradation observed at any dosage)” value was “C (>80% tau protein remaining after 72 hours of incubation with the test compound)”.
`Cn1c2ccncc2c2ccc(-c3ccc(O[C@H]4C[C@H](OCCOc5ccc(OC6CN(c7ccc8c(c7)C(=O)N(C7CCC(=O)NC7=O)C8=O)C6)nc5)C4)nc3)cc21` (stereo partly shown) [Compound 155, 2-(2,6-dioxopiperidin-3-yl)-5-(3-((5-(2-((1r,3r)-3-((5-(5-methyl-5H-pyrido[4,3-b]indol-7-yl)pyridin-2-yl)oxy)cyclobutoxy)ethoxy)pyridin-2-yl)oxy)azetidin-1-yl)isoindoline-1,3-dione] was tested, and the “Degradation activity* (highest amount of degradation observed at any dosage; tau protein remaining)” value was “C (>80% tau protein remaining after 72 hours of incubation with the test compound)”.

Same assay, conditions: SK-N-SH cells; 72 hours of incubation; tested at 1000 nM, 300 nM and 100 nM
For `CN(C)c1ccc(-c2ccc3cc(OCC(O)COCCOCCOCCNc4cccc5c4C(=O)N(C4CCC(=O)NC4=O)C5=O)ccc3n2)cc1` (stereo not shown) [Compound 47, 4-(2-(2-(2-(3-(2-(4-(dimethylamino)phenyl)quinolin-6-yloxy)-2-hydroxypropoxy)ethoxy)ethoxy)ethylamino)-2-(2,6-dioxopiperidin-3-yl)isodoline-1,3-dione], the “Activity* (highest amount of degradation observed at any dosage, as tau protein remaining)” value was “C (>80% tau protein remaining after 72 hours of incubation with the test compound)”.
In the case of `Cn1c2ccncc2c2ccc(-c3ccc(OCCOCCOCCOCCOCCNc4cccc5c4C(=O)N(C4CCC(=O)NC4=O)C5=O)nc3)cc21` (stereo not shown) [Compound 48, 2-(2,6-dioxopiperidin-3-yl)-4-(14-(5-(5-methyl-5H-pyrido[4,3-b]indol-7-yl)pyridin-2-yloxy)-3,6,9,12-tetraoxatetradecylamino)isoindoline-1,3-dione], the “Activity* (highest amount of degradation observed at any dosage, as tau protein remaining)” value is reported as “A (≤50% tau protein remaining after 72 hours of incubation with the test compound)”.
In the case of `Cc1ncsc1-c1ccc([C@H](C)NC(=O)[C@@H]2C[C@@H](O)CN2C(=O)[C@@H](NC(=O)COCCCCCOc2ccc3nc(-c4ccc(N(C)C)cc4)ccc3c2)C(C)(C)C)cc1` [Compound 38, (2S,4R)-1-((S)-2-(2-(5-(2-(4-(dimethylamino)phenyl)quinolin-6-yloxy)pentyloxy)acetamido)-3,3-dimethylbutanoyl)-4-hydroxy-N—((S)-1-(4-(4-methylthiazol-5-yl)phenyl)ethyl)pyrrolidine-2-carboxamide], the “Activity* (highest amount of degradation observed at any dosage, as tau protein remaining)” value is reported as “C (>80% tau protein remaining after 72 hours of incubation with the test compound)”.
With `Cc1ncoc1-c1ccc([C@H](C)NC(=O)[C@@H]2C[C@@H](O)CN2C(=O)[C@@H](NC(=O)COCCOCCOCCOCCN2CCN(c3ccn4c(n3)nc3ccccc34)CC2)C(C)(C)C)cc1` [Compound 20, (2S,4R)-1-((S)-17-(4-(benzo[4,5]imidazo[1,2-a]pyrimidin-2-yl)piperazin-1-yl)-2-(tert-butyl)-4-oxo-6,9,12,15-tetraoxa-3-azaheptadecanoyl)-4-hydroxy-N—((S)-1-(4-(4-methyloxazol-5-yl)phenyl)ethyl)pyrrolidine-2-carboxamide] the “Activity* (highest amount of degradation observed at any dosage, as tau protein remaining)” value was “C (>80% tau protein remaining after 72 hours of incubation with the test compound)”.
